Assay results from patent US7838496B2, “Template-fixed peptidomimetics as medicaments against HIV and cancer” (Polyphor AG/Ltd., priority 2003, dated 2010).
Where a SMILES comes first, the peptide text is derived from it. Bridges are numbered along the chain shown (N, C = ends). [ ]: non-standard residue; d: D form. Phe(4-NH2) = Nc1ccc(C[C@H](N)C(=O)O)cc1; 2Nal = N[C@@H](Cc1ccc2ccccc2c1)C(=O)O; Cit = NC(=O)NCCC[C@H](N)C(=O)O; Nlys = NCCCCNCC(=O)O

Experiments:
CCRF-CEM cells = CCRF-CEM cells (Homo sapiens, UniProt P61073); conditions: read-out: IC50 (μM) Cell migration assay; CCRF-CEM cells migrating to 1 nM SDF-1, 4 hours
Sequence of CCRF-CEM cells (P61073 whole entry): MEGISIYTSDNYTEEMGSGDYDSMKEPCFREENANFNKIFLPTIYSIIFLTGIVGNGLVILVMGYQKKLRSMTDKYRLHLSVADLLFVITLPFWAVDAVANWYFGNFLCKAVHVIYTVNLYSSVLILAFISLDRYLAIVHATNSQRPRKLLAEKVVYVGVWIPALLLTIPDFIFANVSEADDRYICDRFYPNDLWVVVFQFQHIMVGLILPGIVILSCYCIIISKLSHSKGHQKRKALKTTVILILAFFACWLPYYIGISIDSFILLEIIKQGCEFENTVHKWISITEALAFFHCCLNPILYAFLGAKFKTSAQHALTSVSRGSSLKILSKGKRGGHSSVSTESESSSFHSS
Method: BELA cells and CCRF-CEM cells were maintained in RPMI1640 plus 5% FBS, Pen/Strept and 2 mM L-Glutamine. […] All cell lines were grown at 37° C. at 5% CO2. Cell media, media supplements, PBS-buffer, HEPES, Pen/Strept., L-Glutamine and sera were purchased from Gibco (Pailsey, UK). All fine chemicals came from Merck (D)armstadt, Germany).
Chemotactic Assay (Cell Migration Assay)
The chemotactic response of CCRF-CEM cells to a gradient of stromal cell-derived factor 1 a (SDF-1) was measured using disposable assay plates from Neuroprobe (5 μ pore size) (Gaithersburg, Md.), according to the manufacturer's directions and references therein [especially ref. 8, below]. Briefly, one 175 cm^2 flask was washed once with Dubecco's phosphate buffered saline (DPBS), and trypsinized for 10 minutes or until cells had lifted. The trypsin was neutralized by the addition of fresh medium containing serum and the cells were pelleted, washed once in DPBS, and resuspended at 1-0.5×10^7 cells/ml in RPM!+0.5% bovine serum albumin (BSA). 451 μl of cell suspension were mixed with 5μ of 10-fold concentrated PEM peptide diluted in the same assay medium. 35 μl of this mixture were applied to the top of the assay filter. The cells were allowed to migrate (at 37°) into the bottom chamber of the assay plate containing 1 nM SDF-1. After 4 hours, the filter was removed and MTT was added to the migrated cells to a final concentration of 0.5 mg/ml, and incubated for a further 4 hours. After labeling with MTT, all medium was removed and 100 μl of isopropanol+10 mM HCl were added to the cells. The optical absorbance at 595 nm (ABS595) was read using a Tecan Genios plate reader with Magellan software. The number of cells migrated was determined by comparing ABS595 values against a standard curve generated with a known number of cells in the assay plate and were plotted against SDF-1 concentration to obtain a sigmoidal curve and to determine the IC50 values. The values for IC50 were determined using the Trendline function in Microsoft Excel by fitting a logarithmic curve to the averaged datapoints.

[1] = test system: human red blood cells (hRBC); format: cell-based; conditions: red cells of human, 1 h
Method: The peptides were tested for their hemolytic activity against human red blood cells (hRBC). Fresh hRBC were washed three times with phosphate buffered saline (PBS) by centrifugation for 10 min at 2000×g. Peptides at a concentration of 100 μM were incubated with 20% v/v hRBC for 1 hour at 37-C. The final erythrocyte concentration was approximately 0.9×10^9 cells per mL. A value of 0% resp. 100% cell lysis was determined by incubation of the hRBC in the presence of PBS alone and respectively 0.1% Triton X-100 in H2O. The samples were centrifuged and the supernatant was 20-fold diluted in PBS buffer and the optical density (OD) of the sample at […] was measured. The 100% lyses value (OD540H2O) gave an OD540 of approximately 1.3-1.8. Percent hemolysis was calculated as follows: (OD540peptide/OD540H2O)×100%.

in vitro = format: cell-based
Method: The cytotoxicity of the peptides to HELA cells (Acc57) and COS-7 cells (CRL-1651) was determined using the MTl reduction assay [see ref. 6 and 7, below]. Briefly the method was as follows: HELA cells and COS-7 cells were seeded at 7.0·10^3 and, respectively, 4.5·10^3 cells per well and grown in 96-well microtiter plates for 24 hours at 37° C. at 5% CO2. At this point, time zero (Tz) was determined by MTT reduction (see below). The supernatant of the remaining wells was discarded and fresh medium and the peptides in serial dilutions of 12.5, 25 and 50 μM were pipeted into the wells. Each peptide concentration was assayed in triplicate. Incubation of the cells was continued for 48 hours at 37° C. at 5% CO2. Wells were then washed once with PBS and subsequently 100 μl MTT reagent (0.5 mg/mL in medium RPMI1640 and, respectively, DMEM) was added to the wells. This was incubated at 37° C. for 2 hours and subsequently the medium was aspirated and 100 μl isopropanol was added to each well. The absorbance at 595 nm of the solubilized product was measured (OD595peptide). For each concentration averages were calculated from triplicates. The percentage of growth was calculated as follows: (OD595peptide-OD595Tz-OD595Empty well)/(OD595Tz-OD595Empty well)×100% and was plotted for each peptide concentration.
The LC 50 values (Lethal Concentration, defined as the concentration that kills 50% of the cells) were determined for each peptide by using the trend line function of EXCEL (Microsoft Office 2000) for the concentrations (50, 25, 12.5 and 0 μM), the corresponding growth percentages and the value −50, (=TREND(C50:C0,%50:%0,−50))
(§1) All fine chemicals came from Merck (D)armstadt, Germany).

CXCR4 = biological target: T1, CXCR4 (Homo sapiens, UniProt P61073); assay: Ca2+ assay: CXCR4 antagonizing activity of the peptides; format: cell-based; conditions: CXCR4 transfected pre-B cells, Fura-2 fluorescence, 37° C.
T1 construct: expressed in transfected cells
T1 sequence (P61073 whole entry): as above
Method: 2.2. Ca^2+− assay: CXCR4Antagonizing Activity of the Peptides
3-4 Mio CXCR4 transfected pre-B cells [see references 1, 2 and 3, below] per measurement were resuspended in 200 μl MSB (20 mM 4-(2-Hyddroxyethyl)-piperazin-1-ethansulfonic acid (HEPES), 136 mM NaCl, 4.8 mM KCl and 1 mM CaCl2) containing 5 mM D-Glucose and were loaded with 0.75 μl of 1 mM Fura-2-acetoxymethylester for 17 minutes at 37° C. The cells were washed free from Fura-2-AM with a platelet centrifuge and resuspended in 800 R1 MSB containing 5 mM D-Glucose. The peptides to be administered were diluted to a 100 fold end concentration in MSB/0.2% PPL, and 8 pl were injected. [Ca^2+ ]i-dependent fluorescence change in response to single or sequential stimulation with the peptide was recorded with a fluorimeter at an excitation wavelength of 340 nm and an end emission wavelength of 510 nm [see ref. 4, below]. Measurements were done under continuous stirring at 37° C. The signal intension was calibrated with 3 mM4 CaCl2/1 nM lonomycin (maximal fura-2-acetoxymethylester saturation) and […] MnCl2 (minimal Fura-2-acetoxymethylester saturation) and [Ca^2+]i-changes are presented in % fura-2-acetoxymethylester saturation.
MSB: 20 nmM HEPES, 136 mM NaCl, 4.8 mM KCl, 1 mM CaCl2.2H2O, pH 7.4; Osmolarity: 310 mOsm adjusted with NaOH or HCl, adjusted with dH2O or PBS.
MSB plus: 5 mM D-glucose in MSB (50 mg/50 mL).
Fura 2-acetoxymethylester: 1 mM stock solution in dimethylsulfoxide.

[2] = test system: 'CCR5' cells / Hut/4-3 cells co-cultivation; assay: FIGS-Assay (co-cultivated cell cultures, beta-galactosidase/ONPG read-out); format: cell-based; conditions: at 200 nM; 48 hours of co-cultivation
Method: The assay was performed according to ref. 5, below. Stock dilutions of the peptides (10 mM) were prepared by dissolving in 10 mM Tris-HCl at room temperature. Stock solutions were kept at +4° C., light protected. Working dilutions were prepared extemporaneously by serial dilution in Phosphate Buffered Saline (PBS) and added in a final volume of 10 μL directly to the cell cultures. After 48 hours of co-cultivation the cultures were rinsed with PBS and then exposed to glutaraldehyde/formaldehyde (0.2%/2%) in PBS for five minutes. For photometric quantification the fixed cultures were subsequently incubated with ortho-nitro-phenyl-galactopyranoside (ONPG) as a O-galactosidase substrate, which was enzymatically converted into the chromophore ortho-nitrophenol (ONP). The read out is directly obtained by measuring optical density of wells at 405 nm in an IEMS 96 well-plate reader.
as §1

Compound | IC50 (CCRF-CEM cells) | Hemolysis at 100 μM [1] | CC50 (in vitro) | CC50 at 48 h (in vitro) | IC50 (CXCR4) | FIGS % inhibition at 200 nM [2]
N=C(N)NCCC[C@H](NC(=O)[C@@H]1CSSC[C@H](NC(=O)[C@H](Cc2ccc3ccccc3c2)NC(=O)[C@H](CCCNC(=N)N)NC(=O)[C@@H](N)CCCNC(=N)N)C(=O)N[C@@H](Cc2ccc(O)cc2)C(=O)N[C@@H](CCCNC(N)=O)C(=O)N[C@@H](CCCCN)C(=O)N2CCC[C@@H]2C(=O)N2CCC[C@H]2C(=O)N[C@@H](Cc2ccc(O)cc2)C(=O)N[C@@H](CCCNC(=N)N)C(=O)N[C@@H](CCCNC(N)=O)C(=O)N1)C(N)=O [Example 7] (H-RR[2Nal]CY[Cit]K[dP]PYR[Cit]CR-NH2; disulfide 4-13; N-terminus assumed) | 0.55 µM | 0.3% | 56 µM |  |  | 
CC(=O)N[C@@H](CCCNC(=N)N)C(=O)N[C@@H](CCCNC(=N)N)C(=O)N[C@@H](Cc1ccc2ccccc2c1)C(=O)N[C@H]1CSSC[C@@H](C(=O)N[C@@H](CCCNC(=N)N)C(N)=O)NC(=O)[C@H](CCCNC(N)=O)NC(=O)[C@H](CCCNC(=N)N)NC(=O)[C@H](Cc2ccc(O)cc2)NC(=O)[C@@H]2CCCN2C(=O)[C@H]2CCCN2C(=O)[C@H](CCCCN)NC(=O)[C@H](CCCNC(N)=O)NC(=O)[C@H](Cc2ccc(O)cc2)NC1=O [Example 8] (Ac-RR[2Nal]CY[Cit]K[dP]PYR[Cit]CR-NH2; disulfide 4-13) | 5 µM | 0.1% |  | 226 µM | 13.9 nM | 90.6%
N=C(N)NCCC[C@@H](N)C(=O)N[C@@H](CCCNC(=N)N)C(=O)N[C@@H](Cc1ccc2ccccc2c1)C(=O)N[C@H]1CSSC[C@@H](C(=O)N[C@@H](CCCNC(=N)N)C(N)=O)NC(=O)[C@H](CCCNC(N)=O)NC(=O)[C@H](CCCNC(=N)N)NC(=O)[C@H](Cc2ccc(O)cc2)NC(=O)[C@@H]2CCCN2C(=O)[C@H]2CCCN2C(=O)[C@H](CCCCN)NC(=O)[C@H](CCCNC(N)=O)NC(=O)[C@H](Cc2ccc(O)cc2)NC1=O [Example 10] (H-[dR]R[2Nal]CY[Cit]K[dP]PYR[Cit]CR-NH2; disulfide 4-13) | 0.55 µM | 0.6% |  | 118 µM | 21.5 nM | 82.0%
N=C(N)NCCC[C@H](NC(=O)[C@@H]1CSSC[C@H](NC(=O)[C@H](Cc2ccc(N)cc2)NC(=O)[C@H](CCCNC(=N)N)NC(=O)[C@@H](N)CCCNC(=N)N)C(=O)N[C@@H](Cc2ccc(O)cc2)C(=O)N[C@@H](CCCNC(N)=O)C(=O)N[C@@H](CCCCN)C(=O)N2CCC[C@@H]2C(=O)N2CCC[C@H]2C(=O)N[C@@H](Cc2ccc(O)cc2)C(=O)N[C@@H](CCCNC(=N)N)C(=O)N[C@@H](CCCNC(N)=O)C(=O)N1)C(N)=O [Example 12] (H-RR[Phe(4-NH2)]CY[Cit]K[dP]PYR[Cit]CR-NH2; disulfide 4-13) | 5 µM | 0.1% |  | 226 µM | 13.9 nM | 71.3%
N=C(N)NCCC[C@H](NC(=O)[C@@H]1CSSC[C@H](NC(=O)[C@H](Cc2ccc3ccccc3c2)NC(=O)[C@H](CCCNC(=N)N)NC(=O)CNCCCCN)C(=O)N[C@@H](Cc2ccc(O)cc2)C(=O)N[C@@H](CCCNC(N)=O)C(=O)N[C@@H](CCCCN)C(=O)N2CCC[C@@H]2C(=O)N2CCC[C@H]2C(=O)N[C@@H](Cc2ccc(O)cc2)C(=O)N[C@@H](CCCNC(=N)N)C(=O)N[C@@H](CCCNC(N)=O)C(=O)N1)C(N)=O [Example 16] (H-[Nlys]R[2Nal]CY[Cit]K[dP]PYR[Cit]CR-NH2; disulfide 4-13) | 1.04 µM |  |  |  |  | 
